Patent publication US20170280728A1, “ANTIMICROBIAL COMPOSITIONS AND METHODS OF THEIR USE” (CMS TECHNOLOGY, INC.., priority 2014, published 2017)

Experiments:
[1] = test system: General Bacteria (bacterial bird rinse); assay: General Bacteria Assay (Vivione RAPID-B Total Plate Count); type: cell-based
[2] = test system: Salmonella enterica serovar Anatum (ATCC #9270); assay: Salmonella Assay (liquid sanitizer exposure, log reduction); type: cell-based

Structure (SMILES): O.O.O.O.O.O=S(=O)([O-])[O-].[Cu+2] [Copper, Copper (II) sulfate pentahydrate]
- Average Live ([1]; 5 ppm copper, pH at inoculation 5.68, Baseline 1562): 1633
- Average Live ([1]; 50 ppm copper, pH at inoculation 4.71, Baseline 1562): 1666
- activity against bacteria (in words) ([1]; at 5 ppm and 50 ppm concentrations): negligible activity
- Treated Sample Reduction ([2]; 0 ppm chlorine, 10 ppm copper, Solution pH 6.0, Control Sample Baseline 7.02 log, n = 3): 3.83 log
- antimicrobial effect (in words) ([2]; at lower ppm): limited antimicrobial effect

Structure (SMILES): O=C(O)CC(O)(CC(=O)O)C(=O)O [citric acid @ 0.25%, citric acid]
- Average Live ([1]; pH at inoculation 2.43, Baseline 408): 75
